Data: US10239889B1, “Pentacyclic compound” (Eisai R&D Management Co., Ltd., priority 2017, dated 2019)

System: rat primary septal neuron culture
Test: Measurement of acetylcholine (ACh) release in the rat primary septal neuron culture system in the presence of NGF
Format: cell-based
Conditions: rat primary septal neurons, with NGF, one day after compound addition, ACh by HPLC
Description: Measurement of acetylcholine (ACh) release in the rat primary septal neuron culture system in the presence of NGF
(1) Rat Primary Septal Neuron Culture
The septal area was isolated from Sprague-Dawley (SD) rats (Charles River Laboratories Japan, Inc.) at a fetal age of 18 days, and cultured.
Specifically, fetuses were aseptically removed from pregnant rats under isoflurane anesthesia. The brain was extracted from each fetus, and immersed in ice-cooled L-15 medium (11415-064, Thermo Fisher Scientific). The septal area was dissected from the extracted brain under a stereoscopic microscope. The dissected septal area was subjected to enzyme treatment in an enzyme solution containing 0.25% trypsin (15050-065, Thermo Fisher Scientific) and 0.01% DNase (D5025-150KU, Sigma) at 37° C. for 30 minutes, thereby dispersing the cells. In this case, the enzyme reaction was terminated by adding inactivated horse serum (26050-088, Thermo Fisher Scientific). The enzyme-treated solution was centrifuged at 1000 rpm for 3 minutes, and the supernatant was removed. A medium in an amount of 10 mL was added to the obtained cell mass. The medium used was Dulbecco's Modified Eagle's Medium (044-29765, WAKO) supplemented with N2 supplement (17502-048, Thermo Fisher Scientific), 1 mM sodium pyruvate (11360-070, Thermo Fisher Scientific), and Penicillin-Streptomycin (15140-1221, Thermo Fisher Scientific). The cells of the cell mass to which the medium was added were redispersed by gentle pipetting, and then centrifuged again at 1000 rpm for 3 minutes, and the supernatant was removed. The medium in an amount of 10 mL was added to the obtained cell mass, and the cell dispersion was filtered through a 40-μm nylon mesh (Cell Strainer) to remove the cell mass, thereby obtaining a neuronal cell suspension. The neuronal cell suspension was diluted with the medium, and 10% inactivated bovine serum (26140-079, Thermo Fisher Scientific) and 10% inactivated horse serum were added. Thereafter, 100 μL/well of the suspension was seeded in a 96-well plate (354461, CORNING) pre-coated with poly-D-lysine so that the initial culture density was 1.4×10^5 cells/cm^2. After the seeded cells were cultured under 5% CO2-95% air in a 37° C. incubator for 2 days, the entire medium was replaced with 120 μL of fresh medium, and the cells were subsequently cultured for 5 days.
On the 7th day of culture, compound was added in the following manner. A solution of the test compound in DMSO was diluted with the medium so that the concentration was 10 times higher than the final concentration. NGF (450-01, PEPRO TECH, INC.) was prepared at 0.3 ng/mL. These two solutions were added each in an amount of 15 μL/well, and the mixture was mixed well. The final DMSO concentration was 0.1% or less. Moreover, only DMSO and NGF were added to the control group.
(3) ACh Release Measurement
One day after compound addition, an amount of ACh release was measured by HPLC in the following manner. A warmed buffer was added at 100 μL/well to the well after the medium was eliminated, and the buffer was immediately removed. Thereafter, a buffer to which 10 μm choline, 10 μm physostigmine, and 6 mM KCl were added was added at 120 μL/well. The buffer was prepared by adding 125 mM NaCl, 25 mM 4-(2-hydroxyethyl)-1-piperazineethanesulfonic acid, 1.2 mM KH2PO4, 1.2 mM MgSO4, 2.2 mM CaCl2 (2H2O), and 10 mM glucose to sterilized water, and the final pH of the solution was set to 7.4. After the 96-well plate to which the buffer was added was incubated under 5% CO2-95% air in a 37° C. incubator for 40 minutes, 80 μL of buffer was collected. An internal standard solution IPHC (5×10^−7 M) was added in an amount of 6 μL to the collected buffer, and the buffer was transferred to a tube for HPLC measurement and subjected to HPLC measurement. […]

Structure (SMILES) | Concentration (μM) showing a 20% or more increase from the amount of ACh in the control group
CN1CCc2c(sc3nc4n(c(=O)c23)-c2sccc2C(=O)N(C)C4)C1 [Example 3, 5,10-dimethyl-5,6,9,10,11,12-hexahydropyrido[4″,3″:4′,5′]thieno[2′,3′:4,5]pyrimido[1,2-a]thieno[3,2-f][1,4]diazepine-4,13-dione] | 0.1 µM
CN1CCc2c(sc3nc4n(c(=O)c23)-c2ccc(F)cc2C(=O)N(C)C4)C1 [Example 1] | 0.1 µM
